According to patent publication US20190216772A1, “Antioxidant-Containing Food Composition for Use in Enhancing Antiviral Immunity in Companion Animals” (priority 2008, published 2019):

Key:
Assay type in all cases: in vivo, dog
[1] = test system: interferon mediated antiviral response; test: GeneGo pathway analysis of differentially expressed genes in dogs fed lipoic acid; details: dogs fed lipoic acid for 30 days; 150 ppm in food
From the text: (§1) Twenty dogs were fed for 30 days. Ten were fed an AAFCO level control food and 10 other dogs were fed the AAFCO level control food containing 150 ppm alpha-lipoic acid. At the end of the end of the 30 days whole blood samples were collected from each dog in Paxgene tubes.
(§2) Total RNAs were isolated from whole blood samples using the PAXgene RNA isolation kit. All measurements were done with the canine 2 Affymetrix genechips. For statistical analysis, all measurements were normalized with RMA. All analysis was preformed using Partek. An ANOVA t-test was performed for genes that are differentially expressed between the control and test foods. (at least a 20% change in expression with a pvalue<0.05)
(§3) Differentially expressed genes were analyzed with the GeneGo pathway analysis software.

IFR9 = test: Whole blood gene expression (canine 2 Affymetrix genechip) in dogs fed lipoic acid food for 30 days; details: dogs fed control food containing 150 ppm alpha-lipoic acid for 30 days vs control food; whole blood RNA
From the text: as §1, §2, §3

RNASEL = test: as above; details: dogs fed control food containing 150 ppm alpha-lipoic acid for 30 days vs control food; whole blood RNA
From the text: as §1, §2, §3

IFNAR2 = test: as above; details: dogs fed control food containing 150 ppm alpha-lipoic acid for 30 days vs control food; whole blood RNA
From the text: as §1, §2, §3

JAK2 = test: as above; details: dogs fed control food containing 150 ppm alpha-lipoic acid for 30 days vs control food; whole blood RNA
From the text: as §1, §2, §3

CREBBP = test: as above; details: dogs fed control food containing 150 ppm alpha-lipoic acid for 30 days vs control food; whole blood RNA
From the text: as §1, §2, §3

EIF2AK2 = test: as above; details: dogs fed control food containing 150 ppm alpha-lipoic acid for 30 days vs control food
From the text: as §1, §2, §3

IFNGR2 = test: as above; details: dogs fed control food containing 150 ppm alpha-lipoic acid for 30 days vs control food; whole blood RNA
From the text: as §1, §2, §3

O=C(O)CCCCC1CCSS1 (stereo not drawn) [lipoic acid, alpha-lipoic acid]
interferon mediated antiviral response (pathway analysis of differentially expressed genes) [1]: exhibited an interferon mediated antiviral response
Fold Up-regulated, IFR9 (interferon regulatory factor 9) (IFR9): 1.3 fold
Fold Up-regulated, RNASEL (2-5A-dependent ribonuclease) (RNASEL): 1.5 fold
Fold Up-regulated, IFNAR2 (interferon-alpha/beta receptor beta chain precursor) (IFNAR2): 1.3 fold
Fold Up-regulated, JAK2 (Tyrosine protein kinase JAK2) (JAK2): 1.4 fold
Fold Up-regulated, CREBBP (CREB-binding protein) (CREBBP): 1.2 fold
Fold Up-regulated, EIF2AK2 (Interferon-induced double stranded RNA-activated protein) (EIF2AK2): 1.4 fold
Fold Up-regulated, IFNGR2 (interferon-gamma receptor beta chain precursor) (IFNGR2): 1.2 fold
